Experimental data taken from paper PMC8667902 (Journal of Enzyme Inhibition and Medicinal Chemistry, 2021).
“And” between values parts separate entries of the source, which are not always exact repeats. Identical values can stand only once.

Legend:
[1] = target: eeAChE (Electrophorus electricus, UniProt O42275); assay: Ellman's method, electric eel AChE; assay type: biochemical
[2] = target: ratBuChE (Rattus norvegicus, UniProt Q9JKC1); assay: Ellman's method, BuChE from rat serum; assay type: biochemical
Sequence of ratBuChE (Q9JKC1 24-597): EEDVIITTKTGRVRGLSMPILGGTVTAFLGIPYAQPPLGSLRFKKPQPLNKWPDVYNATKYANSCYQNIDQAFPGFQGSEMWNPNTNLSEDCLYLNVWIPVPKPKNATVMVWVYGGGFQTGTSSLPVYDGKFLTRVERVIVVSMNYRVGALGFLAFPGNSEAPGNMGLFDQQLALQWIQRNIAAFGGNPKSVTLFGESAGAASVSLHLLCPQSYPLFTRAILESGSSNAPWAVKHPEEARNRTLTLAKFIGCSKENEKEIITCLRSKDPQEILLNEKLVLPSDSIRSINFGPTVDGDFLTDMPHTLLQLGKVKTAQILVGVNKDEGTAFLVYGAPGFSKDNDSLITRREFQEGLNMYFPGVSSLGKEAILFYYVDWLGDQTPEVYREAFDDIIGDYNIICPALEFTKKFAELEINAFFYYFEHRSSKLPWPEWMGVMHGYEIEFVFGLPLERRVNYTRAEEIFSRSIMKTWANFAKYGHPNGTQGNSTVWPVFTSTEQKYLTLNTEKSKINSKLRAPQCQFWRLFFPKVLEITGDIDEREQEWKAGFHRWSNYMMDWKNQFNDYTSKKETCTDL

[3] = target: T1, Aβ1–42 (Homo sapiens, UniProt P05067); assay: Inhibition of self-induced Aβ1–42 aggregation; assay type: biochemical; settings: read-out: Inhibition of Aβ1–42 aggregation (%) Self-induced, 25 μM; ThT assay
T1 sequence (P05067 672-713): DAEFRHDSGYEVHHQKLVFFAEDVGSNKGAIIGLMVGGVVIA

[4] = target: T1, Aβ1–42; assay: Inhibition of Cu2+-induced Aβ1–42 aggregation; assay type: biochemical; settings: read-out: Inhibition of Aβ1–42 aggregation (%) Cu^2+-induced
[5] = target: T2, Aβ1–42 fibrils (Homo sapiens, UniProt P05067); assay: Disaggregation of self-induced Aβ1–42 aggregation; assay type: biochemical; settings: 25 μM; ThT assay
T2 sequence (P05067 672-713): as above

[6] = system: AChE; assay: Kinetic characterisation of AChE inhibition; assay type: biochemical; settings: Lineweaver-Burk plots, substrate acetylthiocholine
[7] = target: AChE PAS (eeAChE) (Electrophorus electricus, UniProt O42275); assay: Propidium iodide displacement assay; assay type: binding, electric eel; settings: read-out: Propidium iodide displacement from AChE PAS (% inhibition)
Sequence of AChE PAS (eeAChE) (O42275 24-633): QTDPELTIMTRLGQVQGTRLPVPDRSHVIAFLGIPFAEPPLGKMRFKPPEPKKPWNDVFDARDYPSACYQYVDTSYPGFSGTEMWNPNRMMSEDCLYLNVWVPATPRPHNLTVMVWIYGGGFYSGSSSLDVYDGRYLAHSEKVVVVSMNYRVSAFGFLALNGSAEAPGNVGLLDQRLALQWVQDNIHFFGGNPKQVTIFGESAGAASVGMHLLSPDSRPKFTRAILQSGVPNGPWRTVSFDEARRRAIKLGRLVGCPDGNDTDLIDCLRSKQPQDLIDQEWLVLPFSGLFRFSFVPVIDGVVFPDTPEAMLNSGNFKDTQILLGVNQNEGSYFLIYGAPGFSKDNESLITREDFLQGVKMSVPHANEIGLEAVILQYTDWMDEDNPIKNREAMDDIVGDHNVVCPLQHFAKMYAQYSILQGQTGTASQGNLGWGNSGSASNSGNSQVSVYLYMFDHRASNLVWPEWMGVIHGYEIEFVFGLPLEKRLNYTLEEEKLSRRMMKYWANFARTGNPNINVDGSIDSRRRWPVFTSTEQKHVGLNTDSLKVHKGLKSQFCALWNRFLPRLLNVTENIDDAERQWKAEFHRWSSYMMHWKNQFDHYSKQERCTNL

[8] = target: T3, huMAO-A (Homo sapiens, UniProt P21397); assay: huMAO-A inhibition, fluorescence method; assay type: biochemical
T3 sequence (P21397 1-527): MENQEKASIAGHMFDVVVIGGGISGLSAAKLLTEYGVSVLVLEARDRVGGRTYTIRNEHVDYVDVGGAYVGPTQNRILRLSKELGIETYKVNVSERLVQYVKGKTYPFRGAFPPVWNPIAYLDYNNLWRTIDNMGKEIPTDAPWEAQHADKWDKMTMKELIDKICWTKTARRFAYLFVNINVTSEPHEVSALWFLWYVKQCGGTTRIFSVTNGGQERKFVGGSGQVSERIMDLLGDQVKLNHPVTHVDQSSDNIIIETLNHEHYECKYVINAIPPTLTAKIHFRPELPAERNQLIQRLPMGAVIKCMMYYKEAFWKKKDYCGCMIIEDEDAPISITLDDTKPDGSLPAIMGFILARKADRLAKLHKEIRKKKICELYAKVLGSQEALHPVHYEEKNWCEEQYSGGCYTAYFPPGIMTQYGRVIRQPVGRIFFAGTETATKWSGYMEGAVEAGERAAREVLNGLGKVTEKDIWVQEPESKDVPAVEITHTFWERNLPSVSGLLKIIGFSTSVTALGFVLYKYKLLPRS

[9] = target: T2, Aβ1–42 fibrils; assay: Disaggregation of Cu2+-induced Aβ1–42 aggregation; assay type: biochemical; settings: 25 μM; ThT assay
[10] = Oxygen Radicals Absorbance Capacity by Fluorescence
[11] = target: huAChE-induced Aβ1–40 aggregation (Homo sapiens, UniProt P22303); assay: Inhibition of huAChE-induced Aβ1–40 aggregation; assay type: biochemical; settings: compound 100 μM, Aβ1–40 230 μM, Aβ1–40/HuAChE 100/1; ThT; mean ± SEM
Sequence of huAChE-induced Aβ1–40 aggregation (P22303 32-614): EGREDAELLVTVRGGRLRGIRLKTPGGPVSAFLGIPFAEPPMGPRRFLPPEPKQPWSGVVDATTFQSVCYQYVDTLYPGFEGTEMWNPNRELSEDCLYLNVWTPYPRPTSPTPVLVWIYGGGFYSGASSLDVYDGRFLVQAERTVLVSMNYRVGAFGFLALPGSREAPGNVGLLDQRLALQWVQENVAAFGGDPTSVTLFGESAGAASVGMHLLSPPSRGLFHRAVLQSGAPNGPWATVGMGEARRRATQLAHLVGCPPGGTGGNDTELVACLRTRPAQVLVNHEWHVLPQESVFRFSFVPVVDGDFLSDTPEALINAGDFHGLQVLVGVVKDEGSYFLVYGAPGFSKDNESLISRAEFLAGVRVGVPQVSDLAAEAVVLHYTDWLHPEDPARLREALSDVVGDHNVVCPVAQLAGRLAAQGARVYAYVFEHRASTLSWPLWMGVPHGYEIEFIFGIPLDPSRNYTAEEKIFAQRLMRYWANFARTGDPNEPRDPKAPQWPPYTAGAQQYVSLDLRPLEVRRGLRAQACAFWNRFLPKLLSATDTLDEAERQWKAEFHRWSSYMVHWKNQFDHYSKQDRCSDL

[12] = system: PC12 cells; assay: Neuroprotection against H2O2-induced PC12 cell injury, LDH assay; assay type: cell-based; settings: H2O2 alone 712.7, vehicle 602.3
[13] = PAMPA-BBB
[14] = target: T4, ratAChE (Rattus norvegicus, UniProt P37136); assay: Ellman's method, AChE from rat cortex homogenate; assay type: biochemical; settings: ratBuChE over rat AChE
T4 sequence (P37136 32-614): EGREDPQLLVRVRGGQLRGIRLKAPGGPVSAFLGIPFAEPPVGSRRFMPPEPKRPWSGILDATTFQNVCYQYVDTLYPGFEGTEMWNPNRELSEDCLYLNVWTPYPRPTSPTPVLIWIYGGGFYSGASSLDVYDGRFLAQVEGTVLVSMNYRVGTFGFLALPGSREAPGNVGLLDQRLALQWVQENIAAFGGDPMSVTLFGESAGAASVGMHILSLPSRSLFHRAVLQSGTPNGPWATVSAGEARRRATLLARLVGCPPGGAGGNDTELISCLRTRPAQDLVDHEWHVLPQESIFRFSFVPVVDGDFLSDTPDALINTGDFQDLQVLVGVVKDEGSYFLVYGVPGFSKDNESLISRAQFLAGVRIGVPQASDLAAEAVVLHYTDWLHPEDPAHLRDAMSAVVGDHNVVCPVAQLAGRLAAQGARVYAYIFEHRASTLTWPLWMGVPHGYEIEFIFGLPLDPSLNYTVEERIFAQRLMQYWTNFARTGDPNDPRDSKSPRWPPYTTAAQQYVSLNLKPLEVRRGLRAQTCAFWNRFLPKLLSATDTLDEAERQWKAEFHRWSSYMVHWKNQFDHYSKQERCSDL

[15] = system: PC12 cells; assay: Cytotoxicity in PC12 cells, MTT assay; assay type: cell-based; settings: up to 50 µM
[16] = Metal chelation by UV-vis spectrometry and molar ratio method; assay type: physicochemical
[17] = target: T5, huMAO-B (Homo sapiens, UniProt P27338); assay: biochemical
T5 sequence (P27338 1-520): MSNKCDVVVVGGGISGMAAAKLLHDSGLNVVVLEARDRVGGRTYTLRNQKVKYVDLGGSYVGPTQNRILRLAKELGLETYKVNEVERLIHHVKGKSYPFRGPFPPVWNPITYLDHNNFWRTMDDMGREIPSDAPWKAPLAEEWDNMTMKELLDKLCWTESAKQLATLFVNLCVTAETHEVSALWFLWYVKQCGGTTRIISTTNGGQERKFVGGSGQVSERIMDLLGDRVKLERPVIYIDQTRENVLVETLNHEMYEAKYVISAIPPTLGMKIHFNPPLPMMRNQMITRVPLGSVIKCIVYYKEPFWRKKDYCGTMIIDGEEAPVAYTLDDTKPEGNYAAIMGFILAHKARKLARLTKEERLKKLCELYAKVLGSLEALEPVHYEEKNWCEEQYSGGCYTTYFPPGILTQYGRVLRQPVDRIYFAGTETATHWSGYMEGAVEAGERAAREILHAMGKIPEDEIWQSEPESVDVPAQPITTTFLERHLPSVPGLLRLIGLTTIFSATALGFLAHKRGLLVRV

[18] = 37.5 μM, peak of compound alone: 9d 362 nm, 17f 350 nm

Sequence of eeAChE (O42275 24-633): as the sequence (O42275 24-633) above

## CCN(CCCCCCOc1ccc(/C=C/C(=O)c2c(O)cc(OC)c(O)c2OC)cc1)Cc1ccccc1OC [Compound 17f, (E)-1-(3,6-dihydroxy-2,4-dimethoxyphenyl)-3-(4-((6-(ethyl(2-methoxybenzyl)amino)hexyl)oxy)phenyl)prop-2-en-1-one]
[1]
  IC50: 1.88 ± 0.01 µM
[2]
  IC50: > 500 µM
[3]
  inhibition at 25 µM: 78 ± 0.02%
[4]
  inhibition at 25 µM: 93.5 ± 0.01%
[5]
  Disaggregation of Aβ1–42 aggregation (%) Self-induced: 72.3% and 72.3 ± 0.06%
[6]
  type of AChE inhibition: mixed-type AChE inhibition
[7]
  inhibition at 10 µM: 23.9 ± 1.6%
  inhibition at 50 µM: 34.2 ± 2.3%
[8]
  IC50: 37.5 ± 0.35 µM
[9]
  Disaggregation of Aβ1–42 aggregation (%) Cu^2+-induced: 84.5% and 84.5 ± 0.35%
[10]; Trolox as reference
  ORAC: 3.3 ± 0.01 μM of Trolox equivalent/μM of compounds
[10]; Trolox equivalents
  ORAC-FL value: 3.3 eq
[11]
  % Inhibition of huAChE-induced Aβ aggregation: 53.9 ± 3.7%
[12]; PC12, 100 µM H2O2, compound 10 µM
  LDH vitality: 621.3
[12]; PC12, 100 µM H2O2, compound 50 µM
  LDH vitality: 549.7
[13]; PAMPA
  Papp: 4.23 ± 0.37 ×10⁻⁶ cm/s
[13]; PAMPA-BBB
  Prediction (BBB penetration): CNS+ (Pe (×10^−6 cm/s) > 3.44 × 10^−6 cm/s possess high BBB permeation)
[14]
  SI = Selectivity index = IC50 (BuChE)/IC50 (AChE): >1219.5
[15]
  cytotoxicity in PC12 cells: did not show obvious cytotoxicity
[16]; 37.5 μM
  shift of characteristic UV peak after adding FeSO4 and ZnCl2: no significant shift
[16]; 37.5 μM compound, ascending CuCl2
  mole fraction at break (molar ratio method, compound-Cu^2+): 1.03
[16]; [18]
  characteristic UV peak after adding AlCl3 (red shift): 370 nm
  characteristic UV peak after adding CuCl2 (red shift): 422 nm
[17]
  IC50: 8.8 ± 0.06 µM
  SI = selectivity index = IC50 (hMAO-A)/IC50 (hMAO-B): 4.3
